Test results reported in ChEMBL document CHEMBL3822390, “Synthesis, characterization and anti-cancer activity of a peptide nucleolipid bioconjugate” (2016).

What was measured:
Assay type in all cases: functional
[1] = test system: SN12C; experiment: Cytotoxicity against human SN12C cells assessed as cell growth at 10 uM after 48 hrs by SRB assay; settings: read-out: Activity
[2] = Cytotoxicity against human IGROV1 cells assessed as cell growth at 10 uM after 48 hrs by SRB assay; settings: IGROV-1, 48 h, read-out: Activity
[3] = test system: NCI-H23; experiment: Cytotoxicity against human NCI-H23 cells assessed as cell growth at 10 uM after 48 hrs by SRB assay; settings: NCI-H23, 48 h, read-out: Activity
[4] = test system: Malme-3M; experiment: Cytotoxicity against human MALME-3M cells assessed as cell growth at 10 uM after 48 hrs by SRB assay; settings: read-out: Activity
[5] = test system: NCI-H322M; experiment: Cytotoxicity against human NCI-H322M cells assessed as cell growth at 10 uM after 48 hrs by SRB assay; settings: read-out: Activity
[6] = Cytotoxicity against human HCT116 cells assessed as cell growth at 10 uM after 48 hrs by SRB assay; settings: HCT-116, 48 h, read-out: Activity
[7] = Cytotoxicity against human UACC62 cells assessed as cell growth at 10 uM after 48 hrs by SRB assay; settings: UACC-62, 48 h, read-out: Activity
[8] = test system: A549; experiment: Cytotoxicity against human A549 cells assessed as cell mortality at 10 uM after 48 hrs by SRB assay; settings: A549, 48 h
[9] = Cytotoxicity against human TK10 cells assessed as cell growth at 10 uM after 48 hrs by SRB assay; settings: TK-10, 48 h, read-out: Activity
[10] = test system: MDA-MB-231; experiment: Cytotoxicity against human MDA-MB-231 cells assessed as cell growth at 10 uM after 48 hrs by SRB assay; settings: MDA-MB-231, 48 h, read-out: Activity
[11] = test system: MDA-MB-231; experiment: Cytotoxicity against human MDA-MB-231 cells assessed as cell growth at 7.25 uM after 48 hrs by SRB assay; settings: MDA-MB-231, 48 h, read-out: Activity
[12] = test system: U-251; experiment: Cytotoxicity against human U251 cells assessed as cell growth at 7.25 uM after 48 hrs by SRB assay; settings: U-251, 48 h, read-out: Activity
[13] = Cytotoxicity against human MOLT4 cells assessed as cell growth at 7.25 uM after 48 hrs by SRB assay; settings: MOLT-4, 48 h, read-out: Activity
[14] = Cytotoxicity against human OVCAR4 cells assessed as cell growth at 7.25 uM after 48 hrs by SRB assay; settings: OVCAR-4, 48 h, read-out: Activity
[15] = Cytotoxicity against human UACC62 cells assessed as cell growth at 7.25 uM after 48 hrs by SRB assay; settings: UACC-62, 48 h, read-out: Activity
[16] = Cytotoxicity against human COLO205 cells assessed as cell growth at 7.25 uM after 48 hrs by SRB assay; settings: COLO 205, 48 h, read-out: Activity
[17] = test system: MDA-MB-468; experiment: Cytotoxicity against human MDA-MB-468 cells assessed as cell growth at 7.25 uM after 48 hrs by SRB assay; settings: MDA-MB-468, 48 h, read-out: Activity
[18] = test system: NCI-H460; experiment: Cytotoxicity against human NCI-H460 cells assessed as cell growth at 7.25 uM after 48 hrs by SRB assay; settings: NCI-H460, 48 h, read-out: Activity
[19] = Cytotoxicity against human DU145 cells assessed as cell growth at 7.25 uM after 48 hrs by SRB assay; settings: DU-145, 48 h, read-out: Activity
[20] = test system: MDA-MB-435; experiment: Cytotoxicity against human MDA-MB-435 cells assessed as cell growth at 2.13 uM after 48 hrs by SRB assay; settings: MDA-MB-435, 48 h, read-out: Activity
[21] = test system: MDA-MB-231; experiment: Cytotoxicity against human MDA-MB-231 cells assessed as cell growth at 2.13 uM after 48 hrs by SRB assay; settings: MDA-MB-231, 48 h, read-out: Activity
[22] = Cytotoxicity against human COLO205 cells assessed as cell growth at 2.13 uM after 48 hrs by SRB assay; settings: COLO 205, 48 h, read-out: Activity
[23] = test system: SN12C; experiment: Cytotoxicity against human SN12C cells assessed as cell growth at 2.13 uM after 48 hrs by SRB assay; settings: read-out: Activity
[24] = Cytotoxicity against human SW620 cells assessed as cell growth at 2.13 uM after 48 hrs by SRB assay; settings: SW-620, 48 h, read-out: Activity

## CC(C)C[C@H](NC(=O)[C@H](CCCCN)NC(=O)[C@H](C)NC(=O)[C@H](CC(C)C)NC(=O)[C@H](CCCCN)NC(=O)[C@H](CCCCN)NC(=O)[C@H](C)NC(=O)[C@H](CC(C)C)NC(=O)[C@H](CCCCN)NC(=O)[C@H](C)NC(=O)[C@H](CC(C)C)NC(=O)[C@H](CCCCN)NC(=O)[C@@H](N)CC(=O)O)C(=O)N[C@@H](C)C(=O)N[C@@H](CCCCN)C(=O)N[C@@H](C)C(=O)N[C@@H](CCCCN)C(N)=O
[1]
  growth at 10 µM: 99%
[2]
  growth at 10 µM: 107%
[3]
  growth at 10 µM: 103%
[4]
  growth at 10 µM: 107%
[5]
  growth at 10 µM: 110%
[6]
  growth at 10 µM: 92.1%
[7]
  growth at 10 µM: 104%
[8]
  mortality at 10 µM: 19%
[9]
  growth at 10 µM: 94.4%
[10]
  growth at 10 µM: 109%

## CCCCCCCCCCCCCCCC(=O)NCCCC[C@H](NC(=O)[C@H](C)NC(=O)[C@H](CCCCN)NC(=O)[C@H](C)NC(=O)[C@H](CC(C)C)NC(=O)[C@H](CCCCN)NC(=O)[C@H](C)NC(=O)[C@H](CC(C)C)NC(=O)[C@H](CCCCN)NC(=O)[C@H](CCCCN)NC(=O)[C@H](C)NC(=O)[C@H](CC(C)C)NC(=O)[C@H](CCCCN)NC(=O)[C@H](C)NC(=O)[C@H](CC(C)C)NC(=O)[C@H](CCCCN)NC(=O)[C@@H](N)CC(=O)O)C(N)=O
[11]
  growth at 7.25 µM: 104%
[12]
  growth at 7.25 µM: 91.3%
[13]
  growth at 7.25 µM: 97.6%
[14]
  growth at 7.25 µM: 116%
[15]
  growth at 7.25 µM: 102%
[16]
  growth at 7.25 µM: 112%
[17]
  growth at 7.25 µM: 95.9%
[18]
  growth at 7.25 µM: 107%
[19]
  growth at 7.25 µM: 123%

## CCCCCCCCCCCCCCCCNCCO[C@H]1C[C@H](n2cc(C)c(=O)[nH]c2=O)O[C@@H]1C(=O)NCCCC[C@H](NC(=O)[C@H](C)NC(=O)[C@H](CCCCN)NC(=O)[C@H](C)NC(=O)[C@H](CC(C)C)NC(=O)[C@H](CCCCN)NC(=O)[C@H](C)NC(=O)[C@H](CC(C)C)NC(=O)[C@H](CCCCN)NC(=O)[C@H](CCCCN)NC(=O)[C@H](C)NC(=O)[C@H](CC(C)C)NC(=O)[C@H](CCCCN)NC(=O)[C@H](C)NC(=O)[C@H](CC(C)C)NC(=O)[C@H](CCCCN)NC(=O)[C@@H](N)CC(=O)O)C(N)=O
[20]
  growth at 2.13 µM: 109%
[21]
  growth at 2.13 µM: 101%
[22]
  growth at 2.13 µM: 109%
[23]
  growth at 2.13 µM: 103%
[24]
  growth at 2.13 µM: 108%
